Measured values from patent US20120129875A1, “SUBSTITUTED QUINAZOLINES AS FUNGICIDES” (SYNGENTA CROP PROTECTION, LLC, priority 2009, published 2012).

Key:
Type in all cases: in vivo
[1] = tested on: Pyrenophora teres (Helminthosporium teres); experiment: Pyrenophora teres (Helminthosporium teres) / barley / preventative (net blotch on barley); conditions: barley plants cv. Regina, inoculated 2 days after application, vs untreated control, read-out: disease control
Description: Pyrenophora teres (Helminthosporium teres)/Barley/Preventative (Net Blotch on Barley) 1-week old barley plants cv. Regina are treated with the formulated test compound in a spray chamber. The test plants are inoculated by spraying them with a spore suspension 2 days after application. The inoculated test plants are incubated at 20° C. and 95% rh and the percentage leaf area covered by disease is assessed when an appropriate level of disease appears on untreated check plants (5-7 days after application).

[2] = tested on: Mycosphaerella arachidis (Cercospora arachidicola); experiment: Mycosphaerella arachidis (Cercospora arachidicola) / peanut / preventative; conditions: peanut plants cv. Georgia Green, inoculated one day after application, vs untreated control, read-out: disease control
Description: Mycosphaerella arachidis (Cercospora arachidicola)/Peanut/Preventative 3-week old peanut plants cv. Georgia Green are treated with the formulated test compound in a spray chamber. The test plants are inoculated by spraying them with a spore suspension on their lower leaf surface one day after application. After an incubation period of 4 days under a plastic hood at 23° C. and 100% rh, the test plants are kept at 23° C./20° C. (day/night) and 70% rh in a greenhouse. The percentage leaf area covered by disease is assessed when an appropriate level of disease appears on untreated check plants (12-14 days after application).

Plasmopara viticola = Plasmopara viticola / grape / preventative (grape downy mildew); conditions: grape seedlings cv. Gutedel, inoculated one day after application, vs untreated control, read-out: disease control
Description: Plasmopara viticola/Grape/Preventative (Grape Downy Mildew)
5-week old grape seedlings cv. Gutedel are treated with the formulated test compound in a spray chamber. The test plants are inoculated by spraying a sporangia suspension on their lower leaf surface one day after application. The inoculated test plants are incubated at 22° C. and 100% rh in a greenhouse and the percentage leaf area covered by disease is assessed when an appropriate level of disease appears on untreated check plants (6-8 days after application).

Alternaria solani = Alternaria solani / tomato / preventative (Alternaria on tomato); conditions: tomato plants cv. Roter Gnom, inoculated two days after application, vs untreated control, read-out: disease control
Description: Alternaria solani/Tomato/Preventative (Alternaria on Tomato) 4-week old tomato plants cv. Roter Gnom are treated with the formulated test compound in a spray chamber. The test plants are inoculated by spraying them with a spore suspension two days after application. The inoculated test plants are incubated at 22/18° C. (day/night) and 95% rh in a greenhouse and the percentage leaf area covered by disease is assessed when an appropriate level of disease appears on untreated check plants (5-7 days after application).

[3] = tested on: Botryotinia fuckeliana (Botrytis cinerea); experiment: Botryotinia fuckeliana (Botrytis cinerea) / tomato / preventative (Botrytis on tomato); conditions: tomato plants cv. Roter Gnom, inoculated two days after application, vs untreated control, read-out: disease control
Description: Botryotinia fuckeliana (Botrytis cinerea)/Tomato/Preventative (Botrytis on Tomato) 4-week old tomato plants cv. Roter Gnom are treated with the formulated test compound in a spray chamber. The test plants are inoculated by spraying them with a spore suspension two days after application. The inoculated test plants are incubated at 20° C. and 95% rh in a greenhouse and the percentage leaf area covered by disease is assessed when an appropriate level of disease appears on untreated check plants (5-6 days after application).

[4] = tested on: Mycosphaerella graminicola (Septoria tritici); experiment: Mycosphaerella graminicola (Septoria tritici) / wheat / preventative (Septoria tritici leaf spot on wheat); conditions: Zymoseptoria tritici, wheat plants cv. Riband, inoculated one day after application, vs untreated control, read-out: disease control
Description: Mycosphaerella graminicola (Septoria tritici)/Wheat/Preventative (Septoria tritici Leaf Spot on Wheat) 2-week old wheat plants cv. Riband are treated with the formulated test compound in a spray chamber. The test plants are inoculated by spraying a spore suspension on them one day after application. After an incubation period of 1 day at 22° C./21° C. (day/night) and 95% rh, the test plants are kept at 22° C./21° C. (day/night) and 70% rh in a greenhouse. The percentage leaf area covered by disease is assessed when an appropriate level of disease appears on untreated check plants (16-19 days after application).

Measured: pest or weed control at 200 ppm

c1cc(-c2ncc3ccccc3n2)nc(-c2cccc3ccccc23)c1 [2/6]
not listed: [4]
≥ 80%: all other assays above

Clc1ccccc1-c1cccc(-c2ncc3ccccc3n2)n1 [2/13]
≥ 80%: [2] | Plasmopara viticola | Alternaria solani | [3]

Cc1ccc(-c2ncc3ccccc3n2)nc1-c1ccccc1Cl [3/46]
≥ 80%: [2] | Plasmopara viticola | Alternaria solani

Cc1ccc(Cc2cccc(-c3ncc4ccccc4n3)n2)cc1 [6/10]
≥ 80%: [4]

CCc1ccccc1-c1cccc(-c2ncc3ccccc3n2)n1 [2/37]
≥ 80%: [2] | Plasmopara viticola | Alternaria solani | [3]

Cc1ccc(-c2ncc3ccccc3n2)nc1-c1ccccc1Br [3/36]
≥ 80%: Plasmopara viticola | Alternaria solani | [3]

Clc1ccc(Cc2cccc(-c3ncc4ccccc4n3)n2)cc1 [6/18]
≥ 80%: [1] | [4] | Alternaria solani

Cc1ccc(-c2nc(-c3ncc4ccccc4n3)ccc2C)cc1F [3/94]
not listed: [2]
≥ 80%: all other assays above

c1ccc(-c2cccc(-c3ncc4ccccc4n3)n2)cc1 [2/1]
≥ 80%: [2] | [3]

Cc1ccc(-c2ncc3ccccc3n2)nc1-c1ccc(F)cc1F [3/83]
not listed: [2]
≥ 80%: all other assays above

COc1cccc(Cc2cccc(-c3ncc4ccccc4n3)n2)c1 [6/15]
≥ 80%: [1] | Plasmopara viticola | [4]

Cc1ccc(-c2ncc3ccccc3n2)nc1-c1ccc(Cl)cc1 [3/74]
≥ 80%: [1] | Plasmopara viticola | [4] | Alternaria solani

Cc1ccc(F)c(-c2nc(-c3ncc4ccccc4n3)ccc2C)c1 [3/9]
≥ 80%: all assays above

Cc1ccccc1Cc1cccc(-c2ncc3ccccc3n2)n1 [6/19]
≥ 80%: [1] | Plasmopara viticola | [4] | Alternaria solani

Cc1ccc(-c2ncc3ccccc3n2)nc1Oc1ccc(F)cc1 [5/3]
≥ 80%: [1] | [2] | Plasmopara viticola

Cc1ccc(-c2ncc3ccccc3n2)nc1C#CC1CC1 [8/1]
≥ 80%: [2] | Plasmopara viticola | Alternaria solani | [3]

Cc1ccc(-c2ncc3ccccc3n2)nc1Cc1ccccc1Cl [7/19]
≥ 80%: Plasmopara viticola | [3]

Cc1ccc(-c2ncc3ccccc3n2)nc1-c1ccccc1F [3/82]
≥ 80%: [1] | Plasmopara viticola | [4] | Alternaria solani

COc1ccc(F)c(-c2nc(-c3ncc4ccccc4n3)ccc2C)c1 [3/56]
≥ 80%: [2] | Plasmopara viticola | Alternaria solani

Cc1ccc(-c2ncc3ccccc3n2)nc1-c1ccc(F)cc1O [3/101]
not listed: [2]
≥ 80%: all other assays above

Cc1ccc(Oc2nc(-c3ncc4ccccc4n3)ccc2C)cc1 [5/17]
≥ 80%: [2] | Plasmopara viticola

Cc1ccc(F)cc1-c1nc(-c2ncc3ccccc3n2)ccc1C [3/26]
not listed: [4]
≥ 80%: all other assays above

Cc1cc(C)cc(-c2nc(-c3ncc4ccccc4n3)ccc2C)c1 [3/86]
≥ 80%: [1] | Plasmopara viticola | Alternaria solani

Brc1ccccc1-c1cccc(-c2ncc3ccccc3n2)n1 [2/26]
≥ 80%: [2] | Plasmopara viticola

Cc1ccc(-c2nc(-c3ncc4ccccc4n3)ccc2C)cc1 [3/69]
≥ 80%: [1] | Plasmopara viticola | [3]

Cc1cccc(-c2cccc(-c3ncc4ccccc4n3)n2)c1 [2/3]
≥ 80%: [1] | Plasmopara viticola | Alternaria solani

COc1ccc(-c2nc(-c3ncc4ccccc4n3)ccc2C)cc1C [3/93]
≥ 80%: [1] | Plasmopara viticola | [4] | Alternaria solani
